Experimental data from US7728016B2, “Substituted 5-membered ring compounds and their use” (Vernalis (Cambridge) Limited, priority 2003, dated 2010).

Molecular target: T1, human full-length HSP90 (Homo sapiens, UniProt P08238)
T1 construct: E. coli expressed human full-length HSP90 protein; made in house; host or cells: E. coli
Test: Fluorescence polarization assay (competitive displacement of probe RBT0045864-FAM from HSP90)
Format: binding
Details: fluorescence polarisation assay, E. coli expressed human full-length HSP90, probe 80 nM
Text: A fluorescence polarization assay was employed for the evaluation of some of the compounds of the Examples:
Fluorescence Polarization Assay
Fluorescence polarization {also known as fluorescence anisotropy} measures the rotation of a fluorescing species in solution, where the larger molecule the more polarized the fluorescence emission. When the fluorophore is excited with polarized light, the emitted light is also polarized. The molecular size is proportional to the polarization of the fluorescence emission.
The fluoroscein-labelled probe—RBT0045864-FAM—
[drawing 25] binds to HSP90 {full-length human, full-length yeast or N-terminal domain HSP90} and the anisotropy {rotation of the probe:protein complex} is measured.
Test compound is added to the assay plate, left to equilibrate and the anisotropy measured again. Any change in anisotropy is due to competitive binding of compound to HSP90, thereby releasing probe.
Chemicals are of the highest purity commercially available and all aqueous solutions are made up in AR water. • 1) Costar 96-well black assay plate #3915 • 2) Assay buffer of (a)100 mM Tris pH7.4; (b) 20 mM KCl; (c) 6 mM MgCl2. Stored at room temperature. • 3) BSA (bovine serum albumen) 10 mg/ml (New England Biolabs #B9001S) • 4) 20 mM probe in 100% DMSO stock concentration. Stored in the dark at RT. Working concentration is 200 nM diluted in AR water and stored at 4° C. Final concentration in assay 80 nM. • 5) E. coli expressed human full-length HSP90 protein, purified >95% (see, e.g., Panaretou et al., 1998) and stored in 50 μL aliquots at −80° C. Protocol • 1) Add 100 μl 1× buffer to wells 11A and 12A (=FP BLNK) • 2) Prepare assay mix—all reagents are kept on ice with a lid on the bucket as the probe is light-sensitive.
• 3) Aliquot 100 μl assay mix to all other wells • 4) Seal plate and leave in dark at room temp for 20 minutes to equilibrate Compound Dilution Plate—1×3 Dilution Series • 1) In a clear 96-well v-bottom plate—{#VWR 007/008/257} add 10 μl 100% DMSO to wells B1 to H11 • 2) To wells A1 to A11 add 17.5 μl 100% DMSO • 3) Add 2.5 μl cpd to A1. This gives 2.5 mM {50×} stock cpd—assuming cpds 20 mM. • 4) Repeat for wells A2 to A10. Control in columns 11 and 12. • 5) Transfer 5 μl from row A to row B—not column 12. Mix well. • 6) Transfer 5 μl from row B to row C. […] In column 11 {provides standard curve} only add compound B11-H11. Add 2 μl of 100 mM standard cpd to wells B12-H12 {is positive control} • 13) The Z′ factor is calculated from zero controls and positive wells. It typically gives a value of 0.7-0.9.
The compounds tested in the above assay were assigned to one of two activity ranges, namely A=<10 μM; B=>10 μM, and those assignments are reported above.

T1 sequence (P08238 whole entry): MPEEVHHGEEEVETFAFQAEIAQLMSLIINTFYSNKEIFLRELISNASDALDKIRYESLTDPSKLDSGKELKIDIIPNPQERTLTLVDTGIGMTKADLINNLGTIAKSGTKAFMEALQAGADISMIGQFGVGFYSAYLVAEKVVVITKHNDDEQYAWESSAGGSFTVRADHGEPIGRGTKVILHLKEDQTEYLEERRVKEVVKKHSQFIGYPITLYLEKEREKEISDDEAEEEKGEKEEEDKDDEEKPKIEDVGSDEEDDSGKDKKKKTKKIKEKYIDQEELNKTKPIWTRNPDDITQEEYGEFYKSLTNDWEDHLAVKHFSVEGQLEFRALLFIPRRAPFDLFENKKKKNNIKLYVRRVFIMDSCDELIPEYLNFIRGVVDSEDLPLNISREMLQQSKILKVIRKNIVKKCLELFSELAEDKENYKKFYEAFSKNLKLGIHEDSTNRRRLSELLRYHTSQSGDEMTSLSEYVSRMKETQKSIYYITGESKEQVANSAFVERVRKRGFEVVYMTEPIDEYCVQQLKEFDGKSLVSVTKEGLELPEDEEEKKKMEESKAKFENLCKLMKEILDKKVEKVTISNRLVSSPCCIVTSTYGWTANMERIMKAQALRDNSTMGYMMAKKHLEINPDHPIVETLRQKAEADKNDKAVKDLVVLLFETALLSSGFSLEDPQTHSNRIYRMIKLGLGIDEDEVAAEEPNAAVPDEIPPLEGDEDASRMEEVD

| SMILES | IC50 [µM] |
| --- | --- |
| Oc1ccc(-c2csc(-c3c[nH]c4ccccc34)n2)c(O)c1 [(i)] | > 10 |
| Oc1ccc(C2NN=C(Cc3ccccc3)S2)c(O)c1 (centres unmarked) [(ii)] | > 10 |
| Cc1ccccc1-n1c(S)nnc1-c1ccc(O)cc1O [(iv)] | < 10 |
| Oc1ccc(-c2nnc(S)n2-c2cccc3ccccc23)c(O)c1 [(iii)] | < 10 |

Second part, the molecule after the results:

| IC50 [µM] | SMILES |
| --- | --- |
| > 10 | CCOC(=O)c1nnn(-c2ccc(O)cc2O)c1-c1ccc(F)cc1 [Example 2, 1-(2,4-Dihydroxy-phenyl)-5-(4-fluoro-phenyl)-1H-[1,2,3]triazole-4-carboxylic acid ethyl ester] |
| < 10 | COc1ccc(OC)c(-n2c(S)nnc2-c2ccc(O)cc2O)c1 [(v)] |
| < 10 | CCOC(=O)c1nnn(-c2cc(Cl)c(O)cc2O)c1-c1ccc(F)cc1 [Example 3, 1-(5-Chloro-2,4-dihydroxy-phenyl)-5-(4-fluoro-phenyl)-1H-[1,2,3]triazole-4-carboxylic acid ethyl ester] |
| > 10 | O=C(O)c1nnn(-c2ccc(O)cc2O)c1-c1ccc(F)cc1 [Example 1, 1-(2,4-Dihydroxy-phenyl)-5-(4-fluoro-phenyl)-1H-[1,2,3]triazole-4-carboxylic acid] |
